Measured values reported in patent publication US8247211B2, “Glycopeptide antibiotics” (American Cyanamid Company, priority 2001, dated 2012).
≈ marks a conversion by molar mass, not a printed value.

Columns and labels:
Experiment in all cases: In vitro antibacterial evaluation: minimum inhibitory concentration (MIC), broth dilution method
Type in all cases: cell-based
Staphylococcus sp. = settings: for MIC Staphylococcus aureus (ATCC 29213): strain ATCC 29213; for MIC Staphylococcus aureus (GC 1131): strain GC 1131; for MIC Staphylococcus aureus (GC 3051): strain GC 3051; for MIC Staphylococcus aureus (GC 3053): strain GC 3053; for MIC Staphylococcus aureus (GC 4541): strain GC 4541; for MIC Staphylococcus aureus (GC 4542): strain GC 4542; for MIC Staphylococcus aureus (GC 4544): strain GC 4544; for MIC Staphylococcus aureus (GC 4545): strain GC 4545
Procedure: (§1) The minimum inhibitory concentration (MIC), the lowest concentration of the antibiotic which inhibits growth of the test organism, is determined by the broth dilution method using Muller-Hinton II […] (Baltimore Biological Laboratories) following the recommendations of the National Committee for Clinical Laboratory Standards [Methods for dilution antimicrobial susceptibility tests for bacteria that grow aerobically, approved standard M7-A2, National Committee for Clinical Laboratory Standards, Villanova, Pa].
(§2) An inoculum level of 5×10^5 CFU/mL, and a range of antibiotic concentrations (64-0.06 μg/mL) is used. […] The test organisms include a spectrum of Gram-positive bacteria comprised of Staphylococcus sp., Streptococcus sp. and Enterococcus sp. These organisms include recent clinical isolates that are resistant to methicillin, penicillin and/or vancomycin.

Enterococcus sp. = settings: broth dilution, 5×10^5 CFU/mL, 18 hours at 35° C.
Procedure: as §1, §2

Escherichia coli = settings: 5×10^5 CFU/mL, 18 hours at 35° C.
Procedure: as §1, §2

Streptococcus sp. = settings: broth dilution, 5×10^5 CFU/mL, 18 hours at 35° C.
Procedure: as §1, §2

[1] = broth dilution, 5×10^5 CFU/mL, 18 hours at 35° C.
[2] = broth dilution, 18 hours at 35° C.

MIC Coagulase Negative Staphylococcus (GC 4547) (Staphylococcus sp.; [1]): 8 µg/mL (≈ 5.59 µM)
MIC Coagulase Negative Staphylococcus (GC 4548) (Staphylococcus sp.; [1]): 8 µg/mL (≈ 5.59 µM)
MIC Coagulase Negative Staphylococcus (GC 4549) (Staphylococcus sp.; [1]): 8 µg/mL (≈ 5.59 µM)
MIC Coagulase Negative Staphylococcus (GC 4551) (Staphylococcus sp.; [1]): 8 µg/mL (≈ 5.59 µM)
MIC Coagulase Negative Staphylococcus (GC 6257) (Staphylococcus sp.; [1]): 8 µg/mL (≈ 5.59 µM)
MIC Staphylococcus aureus-SMITH (GC 4543) (Staphylococcus sp.; [1]): 8 µg/mL (≈ 5.59 µM)
MIC Staphylococcus aureus (ATCC 29213) (Staphylococcus sp.): 8 µg/mL (≈ 5.59 µM)
MIC Staphylococcus aureus (ATCC 29213) (Staphylococcus sp.; [2]): 8 µg/mL (≈ 5.59 µM)
MIC Staphylococcus aureus (GC 1131) (Staphylococcus sp.): 8 µg/mL (≈ 5.59 µM)
MIC Staphylococcus aureus (GC 1131) (Staphylococcus sp.; [2]): 8 µg/mL (≈ 5.59 µM)
MIC Staphylococcus aureus (GC 3051) (Staphylococcus sp.): 8 µg/mL (≈ 5.59 µM)
MIC Staphylococcus aureus (GC 3051) (Staphylococcus sp.; [2]): 8 µg/mL (≈ 5.59 µM)
MIC Staphylococcus aureus (GC 3053) (Staphylococcus sp.): 8 µg/mL (≈ 5.59 µM)
MIC Staphylococcus aureus (GC 3053) (Staphylococcus sp.; [2]): 8 µg/mL (≈ 5.59 µM)
MIC Staphylococcus aureus (GC 4541) (Staphylococcus sp.): 8 µg/mL (≈ 5.59 µM)
MIC Staphylococcus aureus (GC 4541) (Staphylococcus sp.; [2]): 8 µg/mL (≈ 5.59 µM)
MIC Staphylococcus aureus (GC 4542) (Staphylococcus sp.): 8 µg/mL (≈ 5.59 µM)
MIC Staphylococcus aureus (GC 4542) (Staphylococcus sp.; [2]): 8 µg/mL (≈ 5.59 µM)
MIC Staphylococcus aureus-SMITH (GC 4543) (Staphylococcus sp.; strain GC 4543, broth dilution, 18 hours at 35° C.): 8 µg/mL (≈ 5.59 µM)
MIC Staphylococcus aureus (GC 4544) (Staphylococcus sp.): 8 µg/mL (≈ 5.59 µM)
MIC Staphylococcus aureus (GC 4544) (Staphylococcus sp.; [2]): 8 µg/mL (≈ 5.59 µM)
MIC Staphylococcus aureus (GC 4545) (Staphylococcus sp.): 8 µg/mL (≈ 5.59 µM)
MIC Staphylococcus aureus (GC 4545) (Staphylococcus sp.; [2]): 8 µg/mL (≈ 5.59 µM)
MIC Coagulase Negative Staphylococcus (GC 4547) (Staphylococcus sp.; strain GC 4547, broth dilution, 18 hours at 35° C.): 8 µg/mL (≈ 5.59 µM)
MIC Coagulase Negative Staphylococcus (GC 4548) (Staphylococcus sp.; strain GC 4548, broth dilution, 18 hours at 35° C.): 8 µg/mL (≈ 5.59 µM)
MIC Coagulase Negative Staphylococcus (GC 4549) (Staphylococcus sp.; strain GC 4549, broth dilution, 18 hours at 35° C.): 8 µg/mL (≈ 5.59 µM)
MIC Coagulase Negative Staphylococcus (GC 4551) (Staphylococcus sp.; strain GC 4551, broth dilution, 18 hours at 35° C.): 8 µg/mL (≈ 5.59 µM)
MIC Coagulase Negative Staphylococcus (GC 6257) (Staphylococcus sp.; strain GC 6257, broth dilution, 18 hours at 35° C.): 8 µg/mL (≈ 5.59 µM)
MIC Enterococccus avium (GC 4558) (Enterococcus sp.): 8 µg/mL (≈ 5.59 µM)
MIC Enterococccus faecalis (ATCC 29212) (Enterococcus sp.): 8 µg/mL (≈ 5.59 µM)
MIC Enterococccus faecalis (GC 2691) (Enterococcus sp.): 8 µg/mL (≈ 5.59 µM)
MIC Enterococccus faecalis (GC 3059) (Enterococcus sp.): 8 µg/mL (≈ 5.59 µM)
MIC Enterococccus faecalis (GC 4552) (Enterococcus sp.): 8 µg/mL (≈ 5.59 µM)
MIC Enterococccus faecalis (GC 4553) (Enterococcus sp.): 8 µg/mL (≈ 5.59 µM)
MIC Enterococccus faecalis (GC 4554) (Enterococcus sp.): 8 µg/mL (≈ 5.59 µM)
MIC Enterococccus faecalis (GC 6189) (Enterococcus sp.): 8 µg/mL (≈ 5.59 µM)
MIC Enterococccus faecium (GC 2243) (Enterococcus sp.): 8 µg/mL (≈ 5.59 µM)
MIC Enterococccus faecium (GC 4556) (Enterococcus sp.): 8 µg/mL (≈ 5.59 µM)
MIC Enterococccus faecium (GC 4557) (Enterococcus sp.): 8 µg/mL (≈ 5.59 µM)
MIC Enterococcus faecalis (GC 2242) (Enterococcus sp.): 8 µg/mL (≈ 5.59 µM)
MIC Escherichia coli (ATCC 25922) (Escherichia coli): 64 µg/mL (≈ 44.7 µM)
MIC Escherichia coli (GC 4559) (Escherichia coli): 64 µg/mL (≈ 44.7 µM)
MIC Escherichia coli (GC 4560) (Escherichia coli): 8 µg/mL (≈ 5.59 µM)
MIC Streptococcus agalactiae (GC 4564) (Streptococcus sp.): 1 µg/mL (≈ 0.699 µM)
MIC Streptococcus pneumoniae (GC 1894) (Streptococcus sp.): <0.06 µg/mL
MIC Streptococcus pneumoniae (GC 4565) (Streptococcus sp.): <0.06 µg/mL
MIC Streptococcus pneumonine (ATCC 6301) (Streptococcus sp.): <0.06 µg/mL
MIC Streptococcus pyogenes (GC 4563) (Streptococcus sp.): 0.12 µg/mL (≈ 0.0838 µM)
SMILES: CC(C)=CCCC(C)CC1OCC2OC(OC3C(CO)OC(Oc4ccc(CC5NC(=O)C(C(C)c6ccccc6)NC(=O)CNC(=O)C(CO)NC(=O)C(C(O)C6CNC(=N)N6C6OC(CO)C(O)C(O)C6O)NC(=O)C(C(O)C6CNC(=N)N6)NC5=O)cc4)C(O)C3O)C(O)C(O)C2O1 (stereo not drawn) [Example 126, Cyclo[glycyl-β-methylphenylalanyl-O-[4-O-[4,6-O-[3,7-dimethyloct-6-en-1-ylidene)hexopyranosyl]hexopyranosyl]tyrosyl-3-(2-iminoimidazolidin-4-yl)seryl-3-(3-hexopyranosyl-2-iminoimidazolidin-4-yl)serylseryl]]
MIC Staphylococcus haemolyticus (GC 4546) (Staphylococcus sp.; [1]): 8 µg/mL (≈ 5.59 µM)
MIC Staphylococcus haemolyticus (GC 4546) (Staphylococcus sp.; strain GC 4546, broth dilution, 18 hours at 35° C.): 8 µg/mL (≈ 5.59 µM)
